In paper PMC8537011 (Journal of Fungi, 2021):

Target: T1, PELa (P. expansum Lactonase) (Penicillium expansum, UniProt A0A0A2K035)
T1 construct: gene PEX2_072460
Experiment: UV absorbance at […] nm, initial rates, Michaelis-Menten fit
Type: biochemical
Details: 100 mM Tris-HCl pH 7.5, NaCl, 100 µM ZnCl2, 25 °C; 0.6 μM enzyme, 0-0.4 mM patulin

T1 sequence (A0A0A2K035 entry or part of it): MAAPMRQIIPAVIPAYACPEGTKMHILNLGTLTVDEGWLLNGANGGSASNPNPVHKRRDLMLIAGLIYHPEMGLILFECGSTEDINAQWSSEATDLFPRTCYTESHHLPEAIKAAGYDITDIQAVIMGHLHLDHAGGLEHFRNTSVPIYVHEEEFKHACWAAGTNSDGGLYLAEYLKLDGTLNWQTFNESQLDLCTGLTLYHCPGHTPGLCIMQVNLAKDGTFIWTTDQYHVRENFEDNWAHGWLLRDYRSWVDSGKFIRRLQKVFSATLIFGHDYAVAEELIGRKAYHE

**Q.** How did the Km turn out when `O=C1C=C2C(=CCOC2O)O1` (stereo not shown) [patulin] was run?
**A.** 377 ± 112 µM
